Measured values reported in patent publication US20170105910A1, “UV FILTER CAPSULE” (BASF SE, priority 2007, published 2017).

Assay: Solubility of Ethylhexyl Triazone in solvents (visual assessment)
Assay type: physicochemical
Description: The solubility of Ethylhexyl Triazone in the systems indicated can be determined as follows:
The test substance is initially incorporated into the solvent (for example cosmetic emollient, as indicated in the table) at room temperature (about 20° C.-25° C.) with stirring in small beakers on a heatable magnetic stirrer (the stirring time here should not exceed about 30 min.). The assessment is carried out visually, i.e. it is checked whether a completely clear solution and without evident particles is present. The amounts, conditions and stirring times employed should be noted. If the substance is readily soluble, the concentration is increased by subsequent incorporation of further substance, for example by addition in 0.1 g steps with stirring. […] The assessment is carried out visually, if necessary with the aid of a microscope with lambda plate.

In the case of `CCCCC(CC)COC(=O)c1ccc(Nc2nc(Nc3ccc(C(=O)OCC(CC)CCCC)cc3)nc(Nc3ccc(C(=O)OCC(CC)CCCC)cc3)n2)cc1` (centres unmarked) [Ethylhexyl Triazone, 2,4,6-tris[anilino(p-carbo-2′-ethyl-1′-hexyloxy)]-1,3,5-triazine], the “solubility at room temperature” value (in Spectrasolv DMDA, room temperature (20° C. to 25° C.)) is reported as “about 55 % by weight”, the “Ethylhexyl Triazone solubility at 25° C.” value (solvent C12-13 Alkyl Lactate) is reported as 22% and the “Ethylhexyl Triazone solubility at 25° C.” value (solvent Di-C12-13 Alkyl Tartrate) is reported as 35%. For the same compound, the “Ethylhexyl Triazone solubility at 25° C.” value (solvent Dioctyl Malate) was 13% and the “Ethylhexyl Triazone solubility at 25° C.” value (solvent Spectrasolv DMDA) was “about 55%”.
